Reference: patent US7534558B2, “In vitro diagnostic test for enterovirus infections” (Universite de Lille 2 Droit Et Sante, priority 2003, dated 2009)
Entries after “also recorded” stand apart in the source; their conditions may differ.

Assays:
[1] = test system: anti-VP4 antibodies in plasmas or serums; assay: ELISA of plasmas/serums on wells coated with VP4 protein or VP4 peptides; format: binding, human; conditions: for OD in ELISA assay compared with the VP4 protein: 40 serums from patients and 40 controls; for Mean value of OD ratio (OD / OD of negative control), ELISA: diluted 1/50, antigen coated at 5 μg/ml, 490 nm
Procedure: 40 plasmas from non diabetic patients and 40 plasmas or serums from diabetic patients were assayed.
The VP4 protein or the 5 VP4 peptides, diluted at 5 μg/ml in PBS buffer pH=7.4, are coated in the wells of a microplate of 96 wells (FluoroMunc, MaxiSorp surface, NUNC, Danemark) at the rate of 100 μl/well. The plates are incubated for 1 hour at 37° C. under humid atmosphere, then left for 24 h at room temperature. After 3 washings with PBS buffer, the wells are saturated with 300 μl of saturation buffer for 1 hour at 37° C. under humid atmosphere, before washing 3 times with the washing buffer. Then 250 μl of post-coating buffer are added to each well and the plates are incubated for 24 h at room temperature, then stored at 4° C. until use.
The wells coated with the VP4 protein or the different peptides VP4 are washed 3 times with washing buffer in order to remove the post-coating solution. Then 100 μl of the plasmas or serums diluted to 1/50th in dilution buffer are added to different wells and the plates are incubated for 1 hour at 37° C. under humid atmosphere. Simultaneously, a negative control well containing 100 μl of dilution buffer is carried out. Then the wells are washed 3 times with the washing solution and 100 μl of secondary antibody solution are added to each well. After incubation for 1 h at 37° C. under humid atmosphere, the wells are washed 5 times with the washing solution and 100 μl of substrate solution are added to each well. The plates are incubated for 30 minutes at room temperature and in the dark. The coloured reaction is stopped by addition of 25 μl of H2SO4 2M (1M) per well and the plates are read in a plate reader at a wavelength of 490 nm.
ODs obtained for each serum with the VP4 protein and the different peptides VP4 were divided by the OD obtained with the negative control. The following Tables show the mean +/− standard deviation of the rates of OD obtained with the two series of assayed serums (Patient=diabetic patients, Control=not diabetic). (see FIGS. 8 à 10)

[2] = test system: CVB4E2/plasma induced IFNα production by PBMCs; assay: CVB4E2/plasma induced IFNα production by PBMCs (DELFIA); format: cell-based, human
Procedure: (§1) VP4, H antigen or mock proteins were preincubated for 1 h at 37° C. at different concentrations with plasma from 5 healthy subjects diluted at optimal dilution (1/10 or 1/100 ). CVB3 or CVB4 were then added for 1 hour before incubating with PBMCs. […] On the contrary, the mock proteins isolated from non-infected Hep-2 cells have non effect on the IFNα production.
PBMCs separated from whole heparinated blood are distributed into microwells (plate of 96 wells), at the rate of 5 to 8.10^5 cell in 100 μl of supplemented RPMI medium by well. The infection of PBMC is made with a final volume of 100 μl of preparation in each well. After incubation for 48 h at 37° C. under a 5% CO2 atmosphere and 90% humidity, the supernatant is harvested and used immediately for IFNα dosage, or clarified by centrifugation for 10 minutes at 180×g and stored at −80° C. until dosage of the produced IFNα.
(§2) The concentration of the produced IFNα is determined with a sensitive and specific technique, the DELFIA method (Dissociation Enhanced Lanthanide FluoroImmmoAssay) (Rönnblom and al 1997).
(§3) The dosage of IFNα is performed following the DELFIA principle (Dissociation Enhanced Lanthanide FluoroImmunoAssay), based on a immunofluorescence in retarded phase method using antibodies binding IFNα of which one is labelled with europium. The use of an activation solution will release the europium conjugated with antibodies and emit a fluorescence proportional to the amount of produced IFNα and measured with a fluorometer (fluorometer LKB Wallac 1230 ARCOSO®, Turku, Finlande).
Monoclonal anti-IFNα antibodies LT 273 (5.4 mg/ml) and LT 293 (4.8 mg/ml) supplied by Dr Gunar Alm (Uppsala, Sweden) are coated to the bottom of the wells after an incubation for 12 hours at room temperature. These plates can be stored in a buffer at 4° C. or are used immediately. Standard samples of human IFNα are prepared with an “irrelevant” monoclonal mouse antibody IgG1 in order to establish the reference curve (10 measurements). The other samples to be analysed are added to each well (100 μl) with the dilution buffer and the “irrelevant” antibodies and incubated for 2 hours with gentle stirring at room temperature. The wells are washed 3 times with the washing solution. The antibody conjugated to europium (200 μl) is added to each well, left to incubate for 1 hour at room temperature with gentle stirring. The plate is washed 6 times with a washing solution. The activation solution (200 μl), added immediately after washing and left for 20 to 30 minutes for incubation in the well, causes a cleavage of the europium bound to the antibody fixed to IFNα, emitting a fluorescence measured with the fluorescence reader (LKB Wallac 1230 ARCUS®). The IFNα concentration will be calculated from the values of the measured fluorescence by means of the Graphpad program (San Diego, USA). The detection threshold of IFNα is of 0.5 IU/ml.
The plasma from a healthy donor (optimal dilution 1/10th or 1/100th) is pre-incubated for 1 hour at 37° C. with the recombinant VP4 protein of CVB4E2 (optimal concentration at 1 μg/ml). The whole is incubated again for one hour at 37° C. in the presence of the CVB4E2 virus (dilutions at 1/10th or 1/100th; viral titer at 10^13 TCID50/ml) then applied to the PBMCs, (5.10^5/well) to incubate for 48 hours.
In the same way, the plasma preparation preincubated for 1 hour and VP4 of CVB3 are incubated for 1 hour with CVB4E2 before infecting the PBMCs for 48 hours and determinating the amount of the produced IFNα.
The virus (CVB4E2 or CVB3) infected PBMCs in the presence of plasma are deemed to be positive controls of this experimentation. The negative controls are obtained with one well of PBMC alone, one well of virus CVB4B2 alone and one well of CVB3 alone.
The CVB4E2 induced IFNα production in cultures of PBMCs previously incubated in the presence of plasma from healthy subjects was measured. […]

[3] = test system: CVB3/plasma induced IFNα production by PBMCs; assay: CVB3/plasma induced IFNα production by PBMCs (DELFIA); format: cell-based, human; conditions: protein preincubated 1 h at 37°C at different concentrations with plasma from healthy subjects, then CVB3, then PBMCs
Procedure: as §1
PBMCs separated from whole heparinated blood are distributed into microwells (plate of 96 wells), at the rate of 5 to 8.10^5 cell in 100 μl of supplemented RPMI medium by well. The infection of PBMC is made with a final volume of 100 μl of preparation in each well. […]
as §2
as §3, with “Finlande). […]” for “Finlande).”

[4] = Patient = 40 serums of diabetic patients
[5] = Control = 40 serums of non diabetic patients

Molecule | OD in ELISA assay compared with the VP4 protein [1] | Mean value of OD ratio (OD / OD of negative control), ELISA [1, 4] | Mean value of OD ratio (OD / OD of negative control), ELISA [1, 5] | other results
CSCC[C@H](N)C(=O)NCC(=O)N[C@@H](C)C(=O)N[C@@H](CCC(N)=O)C(=O)N[C@H](C(=O)N[C@@H](CO)C(=O)N[C@H](C(=O)N[C@@H](CCC(N)=O)C(=O)N[C@@H](CCCCN)C(=O)N[C@H](C(=O)NCC(=O)N[C@@H](C)C(=O)N[C@@H](Cc1c[nH]cn1)C(=O)N[C@@H](CCC(=O)O)C(=O)N[C@H](C(=O)N[C@@H](CO)C(=O)N[C@@H](CC(C)C)C(=O)N[C@@H](CO)C(=O)N[C@@H](C)C(=O)N[C@@H](CO)C(N)=O)[C@@H](C)O)[C@@H](C)O)[C@@H](C)O)C(C)C [VP4-P1] | comparable to the VP4 protein | 1.450 | – | –
CC[C@H](C)[C@H](NC(=O)[C@H](CC(N)=O)NC(=O)[C@@H](NC(=O)[C@H](Cc1ccc(O)cc1)NC(=O)[C@H](Cc1c[nH]cn1)NC(=O)[C@@H](NC(=O)[C@@H](NC(=O)[C@H](CO)NC(=O)[C@H](CC(N)=O)NC(=O)CNC(=O)[C@H](CO)NC(=O)[C@H](C)NC(=O)[C@H](CO)NC(=O)[C@H](CC(C)C)NC(=O)[C@H](CO)NC(=O)[C@@H](NC(=O)[C@H](CCC(=O)O)NC(=O)[C@H](Cc1c[nH]cn1)NC(=O)[C@H](C)NC(=O)CN)[C@@H](C)O)[C@@H](C)CC)[C@@H](C)CC)[C@@H](C)O)C(N)=O [VP4-P2] | comparable to the VP4 protein; also recorded: same behaviour as VP4; also recorded: recognizes a higher level of antibodies with diabetics as with non-diabetics | 2.373 | 0.691 | effect on IFNα production during infection of PBMCs with CVB4E2 in the presence of plasma ([2]; plasma 1/100th, peptide at three concentrations (FIG. 11, tracks 7 to 9)): diminution of the dose-dependent IFNα production; Mean value of OD ratio (OD / OD of negative control), ELISA ([1]; Patient = 40 serums of diabetic patients, listed as Peptide P2): 2.376
CC[C@H](C)[C@H](NC(=O)[C@H](CC(N)=O)NC(=O)[C@@H](NC(=O)[C@H](Cc1ccc(O)cc1)NC(=O)[C@H](Cc1c[nH]cn1)NC(=O)[C@@H](NC(=O)[C@@H](NC(=O)[C@H](CO)NC(=O)[C@H](CC(N)=O)NC(=O)CN)[C@@H](C)CC)[C@@H](C)CC)[C@@H](C)O)C(=O)N[C@@H](CC(N)=O)C(=O)N[C@@H](Cc1ccc(O)cc1)C(=O)N[C@@H](Cc1ccc(O)cc1)C(=O)N[C@@H](CCCCN)C(=O)N[C@@H](CC(=O)O)C(=O)N[C@@H](C)C(=O)N[C@@H](C)C(=O)N[C@@H](CO)C(=O)N[C@@H](CC(N)=O)C(=O)N[C@@H](CO)C(N)=O [VP4-P3] | – | 0.712 | – | –
CC(C)[C@H](NC(=O)[C@H](CC(=O)O)NC(=O)[C@H](CCCCN)NC(=O)[C@@H](NC(=O)[C@@H]1CCCN1C(=O)[C@H](CCC(=O)O)NC(=O)[C@@H](NC(=O)[C@H](Cc1ccccc1)NC(=O)[C@H](CCCCN)NC(=O)[C@H](CO)NC(=O)[C@@H]1CCCN1C(=O)[C@H](CC(=O)O)NC(=O)[C@H](CCC(N)=O)NC(=O)[C@@H](NC(=O)[C@H](Cc1ccccc1)NC(=O)[C@H](CC(=O)O)NC(=O)[C@H](CCC(N)=O)NC(=O)[C@H](CCCNC(=N)N)NC(=O)[C@H](CC(N)=O)NC(=O)[C@H](C)NC(=O)[C@H](CO)NC(=O)[C@H](CC(N)=O)NC(=O)[C@H](CO)NC(=O)[C@H](C)NC(=O)[C@H](C)NC(=O)[C@H](CC(=O)O)NC(=O)[C@H](CCCCN)NC(=O)[C@H](Cc1ccc(O)cc1)NC(=O)[C@H](Cc1ccc(O)cc1)NC(=O)[C@@H](N)CC(N)=O)[C@@H](C)O)[C@@H](C)O)C(C)C)C(N)=O [VP4-P5] | – | 0.968 | – | –
H-SKFTEPVKDVMIKSLPALN-NH2 [VP4-P6, NH2-SKFTEPVKDVMIKSLPALN-CONH2] | – | 0.600 | – | –
VP4CVB4: natural structural internal protein VP4 dissociated and purified from coxsackievirus CVB4 E2 | – | 1.964 | 0.711 | effect on CVB3/plasma induced IFNα production [3]: no change; effect on CVB4/plasma induced IFNα production ([2]; protein preincubated 1 h at 37°C at different concentrations with plasma from healthy subjects, then CVB4, then PBMCs): Decrease
